Reference: PubChem BioAssay AID248 (DTP/NCI, 2004)
“And” between values parts separate entries of the source, which are not always exact repeats. Equal values may be shown once. Toxic doses and inconclusive results are not listed. No stated cut-off is given here; in the data, active means T/C of 150% or more; inactive means T/C below 125%.

Tested on: L1210 leukemia ip in BDF1 mice, survival T/C
Test: NCI In Vivo Anticancer Drug Screen. Data for tumor model L1210 Leukemia (intraperitoneal) in B6D2F1 (BDF1) mice
Conditions: endpoint: mean survival time, higher = longer survival
Procedure, shortened: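 Survival endpoint. Drug-treated group vs vehicle group, expressed as T divided by C. Tumor passaged by transplantation.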

[1] = dose: 100.0 mg/kg/injection, schedule: Q01DX001 (ip), vehicle: saline
[2] = dose: 200.0 mg/kg/injection, schedule: Q01DX001 (ip), vehicle: saline
[3] = dose: 100.0 mg/kg/injection, schedule: Q04DX003 (ip), vehicle: saline with Tween-80
[4] = dose: 100.0 mg/kg/injection, schedule: Q01DX001 (ip), vehicle: other
[5] = dose: 200.0 mg/kg/injection, schedule: Q01DX001 (ip), vehicle: other
[6] = dose: 50.0 mg/kg/injection, schedule: Q01DX009 (ip), vehicle: saline
[7] = dose: 100.0 mg/kg/injection, schedule: Q01DX005 (ip), vehicle: saline
[8] = dose: 200.0 mg/kg/injection, schedule: Q01DX009 (ip), vehicle: saline
[9] = dose: 400.0 mg/kg/injection, schedule: Q01DX001 (ip), vehicle: saline
[10] = dose: 50.0 mg/kg/injection, schedule: Q04DX003 (ip), vehicle: Klucel (hydroxypropylcellulose) (HPC)
[11] = dose: 100.0 mg/kg/injection, schedule: Q04DX003 (ip), vehicle: Klucel (hydroxypropylcellulose) (HPC)
[12] = dose: 200.0 mg/kg/injection, schedule: Q04DX003 (ip), vehicle: Klucel (hydroxypropylcellulose) (HPC)
[13] = dose: 100.0 mg/kg/injection, schedule: Q01DX001 (ip), vehicle: carboxymethylcellulose (CMC)
[14] = dose: 200.0 mg/kg/injection, schedule: Q01DX001 (ip), vehicle: carboxymethylcellulose (CMC)
[15] = dose: 400.0 mg/kg/injection, schedule: Q01DX001 (ip), vehicle: carboxymethylcellulose (CMC)
[16] = dose: 100.0 mg/kg/injection, schedule: Q01DX009 (ip), vehicle: Klucel (hydroxypropylcellulose) (HPC)
[17] = dose: 200.0 mg/kg/injection, schedule: Q01DX009 (ip), vehicle: Klucel (hydroxypropylcellulose) (HPC)
[18] = dose: 400.0 mg/kg/injection, schedule: Q04DX003 (ip), vehicle: Klucel (hydroxypropylcellulose) (HPC)

Measured: T/C

CCN(CC)CCCNC(C)CCCN(CC)CC (configuration not stated)
inactive: dose: 50.0 mg/kg/injection, schedule: Q01DX009 (ip), vehicle: water 106 % of control | dose: 100.0 mg/kg/injection, schedule: Q01DX009 (ip), vehicle: water 97 % of control and 107 % of control | dose: 100.0 mg/kg/injection, schedule: Q04DX003 (ip), vehicle: water 98 % of control | dose: 200.0 mg/kg/injection, schedule: Q01DX009 (ip), vehicle: water 101 % of control and 103 % of control | dose: 200.0 mg/kg/injection, schedule: Q04DX003 (ip), vehicle: water 98 % of control | dose: 400.0 mg/kg/injection, schedule: Q01DX009 (ip), vehicle: water 93 % of control

COc1cccc(C[P+](C/C=C/c2ccccc2)(c2ccccc2)c2ccccc2)c1
inactive: dose: 6.25 mg/kg/injection, schedule: Q04DX003 (ip), vehicle: Klucel (hydroxypropylcellulose) (HPC) 109 % of control | dose: 12.5 mg/kg/injection, schedule: Q04DX003 (ip), vehicle: Klucel (hydroxypropylcellulose) (HPC) 88 % of control | dose: 25.0 mg/kg/injection, schedule: Q04DX003 (ip), vehicle: Klucel (hydroxypropylcellulose) (HPC) 97 % of control

C=C(C)CC/C=C/C
inactive: dose: 50.0 mg/kg/injection, schedule: Q01DX001 (ip), vehicle: saline 115 % of control | [1] 115 % of control | [2] 110 % of control

COc1cc(N(CCC#N)CCC#N)nc(OC)n1
inactive: dose: 50.0 mg/kg/injection, schedule: Q01DX009 (ip), vehicle: saline with Tween-80 96 % of control | dose: 100.0 mg/kg/injection, schedule: Q01DX009 (ip), vehicle: saline with Tween-80 92 % of control | dose: 200.0 mg/kg/injection, schedule: Q01DX009 (ip), vehicle: saline with Tween-80 92 % of control

C[C@]12CC[C@H](OC3OC(CO)C(O)C(O)C3O)C[C@H]1CC[C@@H]1[C@@H]2CC[C@]2(C)[C@@H](C3=CCOC3=O)CC[C@]12O (some centres not stated)
inactive: dose: 0.5 mg/kg/injection, schedule: Q01DX001 (ip), vehicle: saline 103 % of control | dose: 0.5 mg/kg/injection, schedule: Q01DX010 (ip), vehicle: saline 98 % of control | dose: 1.0 mg/kg/injection, schedule: Q01DX001 (ip), vehicle: saline 105 % of control | dose: 1.0 mg/kg/injection, schedule: Q01DX010 (ip), vehicle: saline 107 % of control | dose: 2.0 mg/kg/injection, schedule: Q01DX001 (ip), vehicle: saline 105 % of control | dose: 2.0 mg/kg/injection, schedule: Q01DX010 (ip), vehicle: saline 107 % of control | dose: 4.0 mg/kg/injection, schedule: Q01DX001 (ip), vehicle: saline 103 % of control | dose: 8.0 mg/kg/injection, schedule: Q01DX001 (ip), vehicle: saline 103 % of control | dose: 16.0 mg/kg/injection, schedule: Q01DX001 (ip), vehicle: saline 108 % of control

Cc1ccc(C)c(C(=O)CCCCl)c1
inactive: [3] 98 % of control

CCCCCCCCCCCCCCCCNCC(=O)Nc1ccc(S(=O)(=O)c2ccc(NC(=O)CNCCCCCCCCCCCCCCCC)cc2)cc1
inactive: dose: 4.0 mg/kg/injection, schedule: Q01DX015 (ip), vehicle: carboxymethylcellulose (CMC) 94 % of control | dose: 8.0 mg/kg/injection, schedule: Q01DX015 (ip), vehicle: carboxymethylcellulose (CMC) 94 % of control | dose: 16.0 mg/kg/injection, schedule: Q01DX015 (ip), vehicle: carboxymethylcellulose (CMC) 104 % of control | dose: 32.0 mg/kg/injection, schedule: Q01DX015 (ip), vehicle: carboxymethylcellulose (CMC) 93 % of control and 101 % of control | dose: 64.0 mg/kg/injection, schedule: Q01DX015 (ip), vehicle: carboxymethylcellulose (CMC) 117 % of control | [4] 89 % of control | [5] 100 % of control

N#Cc1nn(C2OC(CO)C(O)C2O)c2ncnc(N)c12 (configuration not stated)
inactive: dose: 25.0 mg/kg/injection, schedule: Q01DX009 (ip), vehicle: saline 110 % of control | dose: 50.0 mg/kg/injection, schedule: Q01DX005 (ip), vehicle: saline 117 % of control | [6] 114 % of control | [7] 97 % of control

CCOCCNCC1OC(OC)C2OC(C)(C)OC12 (configuration not stated)
inactive: [7] 103 % of control | dose: 200.0 mg/kg/injection, schedule: Q01DX005 (ip), vehicle: saline 103 % of control

CCCCCSc1nc(N)nc2nc[nH]c12
inactive: dose: 50.0 mg/kg/injection, schedule: Q01DX Z (ip), vehicle: methylcellulose (MC) 117 % of control | dose: 75.0 mg/kg/injection, schedule: Q01DX001 (ip), vehicle: saline 106 % of control | dose: 135.0 mg/kg/injection, schedule: Q01DX009 (ip), vehicle: saline 98 % of control | dose: 150.0 mg/kg/injection, schedule: Q01DX001 (ip), vehicle: saline 109 % of control | [8] 104 % of control | dose: 200.0 mg/kg/injection, schedule: Q01DX Z (ip), vehicle: methylcellulose (MC) 104 % of control | dose: 300.0 mg/kg/injection, schedule: Q01DX001 (ip), vehicle: saline 101 % of control | dose: 300.0 mg/kg/injection, schedule: Q01DX009 (ip), vehicle: saline 119 % of control

Nc1cccc(C(=O)Nc2cccc(S(=O)(=O)F)c2)c1
inactive: [1] 95 % of control | [2] 98 % of control | [9] 104 % of control

COc1ccc(S(=O)(=O)c2ccc(F)cc2)cc1
inactive: [10] 95 % of control | [4] 98 % of control | [11] 103 % of control | [5] 110 % of control | [12] 104 % of control | dose: 400.0 mg/kg/injection, schedule: Q01DX001 (ip), vehicle: other 95 % of control

O=C(O)CCC(=O)c1ccc2c(c1)CCCC2
inactive: dose: 3.13 mg/kg/injection, schedule: Q01DX009 (ip), vehicle: saline with Tween-80 95 % of control | dose: 6.25 mg/kg/injection, schedule: Q01DX009 (ip), vehicle: saline with Tween-80 92 % of control | dose: 12.5 mg/kg/injection, schedule: Q01DX009 (ip), vehicle: saline with Tween-80 93 % of control

Cc1ccc(S(=O)(=O)CC#CCOc2ccccc2)cc1
inactive: [6] 92 % of control | [1] 92 % of control | dose: 100.0 mg/kg/injection, schedule: Q01DX009 (ip), vehicle: saline 105 % of control | [2] 97 % of control | [8] 92 % of control | [9] 101 % of control

ICC1COC(CI)CO1 (configuration not stated)
inactive: [13] 97 % of control | [14] 111 % of control and 95 % of control | [15] 95 % of control and 97 % of control

CCCCCCCCC1OCC(C)(C)C(C(C)C)O1 (configuration not stated)
inactive: dose: 50.0 mg/kg/injection, schedule: Q01DX001 (ip), vehicle: carboxymethylcellulose (CMC) 102 % of control | [13] 104 % of control | [14] 107 % of control | [15] 104 % of control

NCC(=O)c1cc2ccccc2[n+]([O-])c1
inactive: [16] 87 % of control | [11] 92 % of control | [17] 93 % of control | [12] 97 % of control | dose: 400.0 mg/kg/injection, schedule: Q01DX009 (ip), vehicle: Klucel (hydroxypropylcellulose) (HPC) 93 % of control | [18] 97 % of control

O=C(O)C(C(=O)O)C1Cc2cccc3cccc1c23 (configuration not stated)
inactive: dose: 25.0 mg/kg/injection, schedule: Q04DX003 (ip), vehicle: saline with Tween-80 96 % of control | dose: 50.0 mg/kg/injection, schedule: Q04DX003 (ip), vehicle: saline with Tween-80 98 % of control | [3] 100 % of control

O=c1[nH]nc(S(=O)(=O)N2CCOCC2)c(=O)[nH]1
inactive: [13] 98 % of control | [14] 96 % of control | [15] 96 % of control

O=C(Nc1ccccc1C(F)(F)F)c1ccc(Cl)c(Cl)c1
inactive: [16] 92 % of control | [11] 91 % of control | [17] 89 % of control | [12] 90 % of control | [18] 88 % of control

COC(=O)C12COC(=O)C1COC2=O (configuration not stated)
inactive: dose: 100.0 mg/kg/injection, schedule: Q04DX003 (ip), vehicle: saline 100 % of control | dose: 200.0 mg/kg/injection, schedule: Q04DX003 (ip), vehicle: saline 98 % of control | dose: 400.0 mg/kg/injection, schedule: Q04DX003 (ip), vehicle: saline 109 % of control

COc1ccc(CCC(=O)c2ccccc2)cc1
inactive: [10] 98 % of control | [11] 104 % of control | [12] 107 % of control

COc1cc2c3c(c1O)C1(C=CC(=O)C=C1)CC3N(C)CC2 (configuration not stated)
inactive: [1] 92 % of control | [2] 94 % of control | [9] 90 % of control
